Here are results for one compound from patent US20220133702A1, “CYSTIC FIBROSIS TRANSMEMBRANE CONDUCTANCE REGULATOR MODULATORS FOR TREATING AUTOSOMAL DOMINANT POLYCYSTIC KIDNEY DISEASE” (The Johns Hopkins University, priority 2020, published 2022).

Common to all, as to type: cell-based, mouse
The test system of assay [1] is HSP27, HSP70 and HSP90 in PN cells. Briefly: Western blot of heat shock proteins in cells. The conditions noted are these: 10 μM, 16 h. On the procedure: FIG. 8A, FIG. 8B, FIG. 8C, FIG. 8D, FIG. 8E, FIG. 8F, FIG. 8G, and FIG. 8H show chaperone expression is altered in PH and PN cells by VX-809. […] Western blot showing expression of HSP27, HSP70 and HSP90 in VX-809 treated or control PN cells. […] (FIG. 8E). Western blot of HSP27, HSP70 and HSP90 in PH vs. PN cells. […] Whereas, Hsp70 is higher in PH vs. PN cells. Data were analyzed by non-parametric t test. Experiment was repeated 4-5 times. Cells were grown in 10-cm culture dishes at permissive conditions (33° C.) with y-interferon in culture media. Cells were then transferred to non-permissive conditions at 37° C., y-interferon free culture media and evaluated at full confluence. At day four, cells were treated with VX-809 (10 μM) for 16 h and harvested on fifth day for assay. *P<0.05., **P<0.01, ***P<0.001, ****P<0.0001;
To facilitate their growth in the kidney, cysts have developed an altered network of proteins that most likely serves to protect them from stress . Next, it was determined whether VX-809 would alter the levels of Hsps in pkd−/− mice and in PN cells. […] Hsp 27, 70 and 90 are all elevated in cystic kidneys compared to normal controls. […] There is no change in Hsp40. […] Both sets of data are consistent with an alteration in the heat shock response to cyst growth.

Assay [2] has as its system Hsp27, Hsp70, and Hsp90 in PN cells. Briefly: Disappearance of Hsps after translation block with cycloheximide. The conditions noted are these: VX-809 10 μM with cycloheximide 25 μM. The protocol: FIG. 9A, FIG. 9B, FIG. 9C, FIG. 9D, FIG. 9E, FIG. 9F, FIG. 9G, and FIG. 9H show Hsp27, HSp70, and Hsp90 expression in PN cells treated with VX-809 and/or cycloheximide. (A) Pkd1 null (PN) cells were treated with VX-809 (10 μM) and/or with cycloheximide (25 μM) for indicated time points before being harvested for the assay. (FIG. 9A) Western blot showing expression of Hsp27, Hsp70, and Hsp90 in VX-809-(16 h), cycloheximide-treated, or control PN cells. ((FIG. 9B. (FIG. 9C, and (FIG. 9D) Columns represent averages±standard errors of Hsp27, Hsp70, and Hsp90 expression in cells treated with VX-809 and/or cycloheximide. ((FIG. 9E) Western blot showing expression of Hsp27, Hsp70, and Hsp90 in PN cells treated with VX-809+cycloheximide or control PN cells. ((FIG. 9F, FIG. 9G, and FIG. 9H) Columns represent averages±standard errors of Hsp27, Hsp70, and Hsp90 expression in cells treated only with cycloheximide or in control PN cells. Data were analyzed by non-parametric t-test. The experiments were repeated 3-5 times. *P<0.05, **P<0.01;
To gain more insight into the mechanism whereby VX-809 alters Hsp protein levels, translation was inhibited by using cycloheximide and the disappearance of the three Hsps was monitored. […] Hsp90 was reduced by approximately 25%, and Hsp27 was unchanged.

In assay [3] the test system is caspase 3 activity in PN cells. Briefly: EnzChek Caspase-3 assay (apoptosis). The conditions noted are these: 16 h. On the procedure:
Apoptosis was measured using the EnzChek Caspase-3 Assay Kit (Invitrogen #E13184). Cells were treated either with VX-809 or with DMSO at indicated concentrations for 16 h or left untreated (control). Both treated and control cells were then harvested, lysed, and assayed as described in the manufacturer's protocol. Reactions were carried out at room temperature, and fluorescence was measured in a fluorescence microplate reader (SpectraMax M3), with excitation at 496 nm and emission detection at 520 nm. Background fluorescence, determined for a no-enzyme control, has been subtracted from each value. Ac-DEVD-CHO was used as an inhibitor control (Inh-cntr1) to confirm the correlation between signal detection and caspase3-like protease activity. Data were analyzed using one-way and ANOVA multiple comparisons. n=4-5. ****P<0.0001;
Apoptosis is associated with the absence of PC1 in ADPKD. To assess whether apoptosis is directly altered by VX-809, caspase 3 activity was monitored in PN cells.

For a further assay, the system named is NHE3 in PN cells. In words: NHE3 expression. Particulars: treated PN cells vs PN cells. On the procedure: FIG. 14A and FIG. 14B show NHE3 expression in PN cells treated with VX-809.
The expression and activity of […] were evaluated. Specifically, NHE3 expression was evaluated in PN cells that were treated with VX-809. […] was also studied in PN, PH, and PN cells treated with VX-809. […] Next, NHE3 activity was evaluated in PN/PH cells or PN cells treated with VX-809. NHE3 activity was increased in PN cells treated with VX-809, as compared to PN cells (FIG. 16A). NHE3 activity was higher in control PH cells than in PN cells (FIG. 16B). […] NHE3 activity was increased in both VX-809 treated PN cells and control PH cells, as compared to control PN cells (FIG. 16C).

On to `Cc1ccc(NC(=O)C2(c3ccc4c(c3)OC(F)(F)O4)CC2)nc1-c1cccc(C(=O)O)c1` [VX-809, lumacaftor], for which, in assay [1], the Hsp27 expression entry is listed as “reduced expression”, the Hsp70 expression result is “reduced expression” and the Hsp90 expression entry is “reduced expression”. In addition, in assay [2], the “Hsp27 level over the 8-h period” value is “unchanged” and the “Hsp90 reduction over the 8-h period” value is “approximately 25%”. For the same compound, in assay [2] (vs time 0), the “Hsp70 levels over the 8-h period” value was “approximately half the level observed at time 0”. For the same compound, the “caspase 3 activity” value in assay [3] is listed as “small reduction”. The NHE3 expression result in the assay on NHE3 in PN cells is on record as “significantly increased”.
